Data as given in patent US4440934A, “5-(4-Hydroxyphenyl) hydantoin derivatives” (Pacific Chemical Ind. Co., Ltd., priority 1981, dated 1984).
Converted amounts (≈) assume the structure as drawn.

Columns and labels:
Type in all cases: cell-based
bacteria = assay: MIC against bacteria, summary over the test bacteria; conditions: for MIC: 48 h, four bacteria of table 1, read-out: MIC value (range over the test bacteria)
Method: (§1) In order to assay the effectiveness of the compounds of the present invention, the MIC(minimum inhibitory concentration) on bacteria, yeast and fungi were determined.
(§2) Minimum inhibitory concentrations were determined according to following procedure.
(§3) For the bacteriostatic activity, the said invention compounds were serially diluted with 10 ml of sterile nutrient broth. Each tube was inoculated with 1 drop of an aqueous suspension of the various test organisms containing approximately 1×10^6 organisms/ml and incubated at 37 C. for 48 hrs. After incubation, the IMC of the said invention compounds were determined as the lowest concentration of compound in which no microscopic evidence of growth was observed. The compounds and the MIC value against bacteria of the compounds can be seen from the following table 1.

Candida albicans = assay: MIC for yeast (sabouraud dextrose agar); conditions: 168 h, 25 C., 7 days, read-out: MIC for molds and yeast
Method: as §1
(§4) For the evaluation of fungistatic activity, each compound was serially diluted in test tubes to give the desired concentration when mixed with 20 ml of steriled molten sabouraud dextrose agar, and poured into sterile petri dishes.
(§5) After the medium was solidified, the spore-suspension of the each test organisms were inoculated by streaking and incubated at 25 C. for 7 days.
(§6) The minimum concentration of the compound effective for inhibiting the growth is determined by examining the growth of the each organism.
(§7) In the above mentioned method the MIC for yeast and molds of the compounds A,B,C,D and E were obtained and can be seen from the table 2.

molds and yeast = assay: fungistatic activity, summary over molds and yeast; conditions: from table 2
Method: as §1, §4, §5, §6, §7

Pseudomonas aeruginosa = assay: MIC against bacteria (serial dilution in nutrient broth); conditions: 37 C., 48 hrs
Method: as §1, §2, §3

Staphylococcus aureus = assay: as above; conditions: 37 C., 48 hrs
Method: as §1, §2, §3

Escherichia coli = assay: as above; conditions: 37 C., 48 hrs
Method: as §1, §2, §3

Bacillus subtilis = assay: as above; conditions: 37 C., 48 hrs
Method: as §1, §2, §3

Fusarium solani = assay: MIC for molds (sabouraud dextrose agar); conditions: 168 h, 25 C., 7 days, read-out: MIC for molds and yeast
Method: as §1, §4, §5, §6, §7

Aspergillus flavus = assay: MIC for molds (sabouraud dextrose agar); conditions: 168 h, 25 C., 7 days, read-out: MIC for molds and yeast
Method: as §1, §4, §5, §6, §7

Tricoderma virid = assay: MIC for molds (sabouraud dextrose agar); conditions: 168 h, 25 C., 7 days, read-out: MIC for molds and yeast
Method: as §1, §4, §5, §6, §7

Aspergillus niger = assay: MIC for molds (sabouraud dextrose agar); conditions: 168 h, 25 C., 7 days, read-out: MIC for molds and yeast
Method: as §1, §4, §5, §6, §7

[1] = tested on: micro-organisms, including bacteria, yeast and molds; assay: antimicrobial activity, bacteria, yeast and molds; conditions: comparison of table 2 with table 1
Method: as §1, §2, §3, §4, §5, §6

SMILES	MIC (bacteria) [µg/mL]	MIC (Candida albicans) [µg/mL]	fungistatic activity compared with the compounds C and D (molds and yeast)	MIC (Pseudomonas aeruginosa) [µg/mL]	MIC (Staphylococcus aureus) [µg/mL]	MIC (Escherichia coli) [µg/mL]	MIC (Bacillus subtilis) [µg/mL]	MIC (Fusarium solani) [µg/mL]	MIC (Aspergillus flavus) [µg/mL]	MIC (Tricoderma virid) [µg/mL]	MIC (Aspergillus niger) [µg/mL]	activity against bacteria compared with fungi and yeast [1]	strength relative to compound C and D (times as strong) (bacteria; from MIC values of table 1)
O=C1C(c2ccc(O)cc2)N(CO)C(=O)N1CO (centres unmarked) [B, 5-(4-hydroxyphenyl)-1,3-bis (hydroxymethyl)hydantoin]	100 to 200 (≈ 0.396 to 0.793 mM)	2000 (≈ 7.93 mM)	stronger fungistatic activities than the compounds C and D	100 (≈ 0.396 mM)	100 (≈ 0.396 mM)	100 (≈ 0.396 mM)	200 (≈ 0.793 mM)	1000 (≈ 3.96 mM)	2000 (≈ 7.93 mM)	1000 (≈ 3.96 mM)	1000 (≈ 3.96 mM)	by far stronger activities against bacteria than fungi and yeast	
O=C1NC(c2ccc(O)c(Cl)c2)C(=O)N1CO (centres unmarked) [E, 5-(3-Chloro-4-hydroxyphenyl)-3-hydroxymethylhydantoin]	100 to 500 (≈ 0.39 to 1.95 mM)	2000 (≈ 7.79 mM)	stronger fungistatic activities than the compounds C and D	100 (≈ 0.39 mM)	100 (≈ 0.39 mM)	100 (≈ 0.39 mM)	500 (≈ 1.95 mM)	1000 (≈ 3.9 mM)	2000 (≈ 7.79 mM)	1000 (≈ 3.9 mM)	2000 (≈ 7.79 mM)	by far stronger activities against bacteria than fungi and yeast	
CC(O)N1C(=O)C(c2ccc(O)cc2)N(C(C)O)C1=O (centres unmarked) [C, 5-(4-hydroxyphenyl)-1,3-bis (1-hydroxyethyl)hydantoin]	700 to 1500 (≈ 2.5 to 5.35 mM)	5000 (≈ 17.8 mM)		1200 (≈ 4.28 mM)	700 (≈ 2.5 mM)	700 (≈ 2.5 mM)	1000 (≈ 3.57 mM)	3000 (≈ 10.7 mM)	5000 (≈ 17.8 mM)	3000 (≈ 10.7 mM)	4000 (≈ 14.3 mM)	by far stronger activities against bacteria than fungi and yeast	
O=C1NC(c2ccc(O)cc2)C(=O)N1CO (centres unmarked) [A, 5-(4-hydroxyphenyl)-3-hydroxymethylhydantoin]	100 to 300 (≈ 0.45 to 1.35 mM)	4000 (≈ 18 mM)	stronger fungistatic activities than the compounds C and D	200 (≈ 0.9 mM)	200 (≈ 0.9 mM)	100 (≈ 0.45 mM)	300 (≈ 1.35 mM)	1500 (≈ 6.75 mM)	3000 (≈ 13.5 mM)	1000 (≈ 4.5 mM)	2000 (≈ 9 mM)	by far stronger activities against bacteria than fungi and yeast	about 10 times
CCC(O)N1C(=O)C(c2ccc(O)cc2)N(C(O)CC)C1=O (centres unmarked) [D, 5-(4-hydroxyphenyl)-1,3-bis (1-hydroxypropyl)hydantoin]	700 to 1500 (≈ 2.27 to 4.86 mM)	5000 (≈ 16.2 mM)		1500 (≈ 4.86 mM)	1000 (≈ 3.24 mM)	900 (≈ 2.92 mM)	1200 (≈ 3.89 mM)	3000 (≈ 9.73 mM)	5000 (≈ 16.2 mM)	2000 (≈ 6.49 mM)	3000 (≈ 9.73 mM)	by far stronger activities against bacteria than fungi and yeast	
